Measured values: patent US11939314B2, “Quinolin-2-one derivatives” (MERCK PATENT GMBH, priority 2016, dated 2024)
pIC50: −log10 of the molar value.

What was measured:
PDGFRalpha(V561D) = molecular target: T1, PDGFRalpha(V561D) (Homo sapiens, UniProt P16234, V561D); experiment: PDGFRalpha(V561D) assay; format: biochemical; settings: recombinant human PDGFRalpha aa 550-end, 200 μM ATP, 1.4E-06 means 1.4×10^−6, read-out: Inhibition (IC50) of PDGFRα (V561D)
T1 construct: recombinant human PDGFRalpha, amino acids 550end containing the V561 D mutation; 6His (N)
In short: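 Radiometric filter-binding assay: substrate phosphorylation by recombinant N-His-tagged human PDGFRα 550-end V561D was quenched with 3% phosphoric acid after 40 min at room temperature, then counted.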

c-Kit(V654A) = molecular target: T2, c-Kit(V654A) (Homo sapiens, UniProt P10721, V654A); experiment: c-Kit(V654A) assay; format: biochemical; settings: recombinant human c-Kit aa 544-end, 200 μM ATP, 1.4E-06 means 1.4×10^−6, read-out: Inhibition (IC50) of c-KIT (V654A)
T2 construct: amino acids 544-end containing the V654A mutation; GST (N)
In short: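 Radiometric filter-binding read-out: substrate 33P incorporation counted by scintillation after P30 filtermat washes in 75 mM phosphoric acid and methanol. Enzyme: N-GST recombinant human c-Kit aa 544-end carrying V654A.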

T1 sequence (P16234 550-1089 V561D): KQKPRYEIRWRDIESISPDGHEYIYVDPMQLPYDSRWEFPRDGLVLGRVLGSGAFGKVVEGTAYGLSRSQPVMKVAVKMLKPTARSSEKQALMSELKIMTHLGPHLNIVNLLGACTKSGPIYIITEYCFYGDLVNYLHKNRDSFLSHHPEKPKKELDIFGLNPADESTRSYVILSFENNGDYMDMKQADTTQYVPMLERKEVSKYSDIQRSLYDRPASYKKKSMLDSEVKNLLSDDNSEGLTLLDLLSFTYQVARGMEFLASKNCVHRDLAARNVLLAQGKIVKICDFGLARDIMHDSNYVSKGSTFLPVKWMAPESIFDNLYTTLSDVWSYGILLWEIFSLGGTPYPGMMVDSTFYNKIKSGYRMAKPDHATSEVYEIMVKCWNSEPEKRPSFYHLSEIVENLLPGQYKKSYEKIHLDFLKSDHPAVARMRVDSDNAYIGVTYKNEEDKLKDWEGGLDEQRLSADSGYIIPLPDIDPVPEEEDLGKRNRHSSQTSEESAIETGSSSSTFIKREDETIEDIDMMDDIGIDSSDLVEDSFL
T2 sequence (P10721 544-976 V654A): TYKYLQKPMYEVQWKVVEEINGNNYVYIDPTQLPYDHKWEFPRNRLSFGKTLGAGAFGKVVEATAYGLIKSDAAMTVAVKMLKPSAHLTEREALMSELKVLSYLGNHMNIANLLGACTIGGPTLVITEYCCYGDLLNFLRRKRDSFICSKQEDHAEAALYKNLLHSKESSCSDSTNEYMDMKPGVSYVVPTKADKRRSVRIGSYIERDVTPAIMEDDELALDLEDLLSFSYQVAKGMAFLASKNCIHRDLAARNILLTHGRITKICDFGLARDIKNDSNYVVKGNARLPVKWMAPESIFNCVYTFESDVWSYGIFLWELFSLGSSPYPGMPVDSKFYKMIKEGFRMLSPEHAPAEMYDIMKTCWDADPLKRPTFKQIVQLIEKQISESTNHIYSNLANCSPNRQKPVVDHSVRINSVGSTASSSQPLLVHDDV

In the case of `O=C(c1ccc(-n2cc(-c3cc4cc(F)ccc4[nH]c3=O)nn2)cc1)N1CCCCC12COC2` [A245, 6-fluoro-3-{1-[4-(2-oxa-5-aza-spiro[3.5]nonane-5-carbonyl)-phenyl]-1H-[1,2,3]triazol-4-yl}-1H-quinolin-2-one], the pIC50 (PDGFRalpha(V561D)) was 6.33 and the pIC50 (c-Kit(V654A)) was 7.19.
In the case of `O=C(c1ccc(-n2cc(-c3cc4cc(Cl)ccc4[nH]c3=O)nn2)cc1)N1CCC[C@H]1CO` [A246, 6-chloro-3-{1-[4-((S)-2-hydroxymethyl-pyrrolidine-1-carbonyl)-phenyl]-1H-[1,2,3]triazol-4-yl}-1H-quinolin-2-one], the pIC50 (PDGFRalpha(V561D)) was 8.13 and the pIC50 (c-Kit(V654A)) was 7.64.
In the case of `CO[C@@H]1C[C@H](CO)N(C(=O)c2ccc(-n3cc(-c4cc5cc(Cl)ccc5[nH]c4=O)nn3)cc2)C1` [A247, 6-chloro-3-{1-[4-((2R,4R)-2-hydroxymethyl-4-methoxy-pyrrolidine-1-carbonyl)-phenyl]-1H-[1,2,3]triazol-4-yl}-1H-quinolin-2-one], the pIC50 (PDGFRalpha(V561D)) was 7.35 and the pIC50 (c-Kit(V654A)) was 7.64.
Work on `CO[C@@H]1C[C@@H](CO)N(C(=O)c2ccc(-n3cc(-c4cc5cc(Cl)ccc5[nH]c4=O)nn3)cc2)C1` [A248, 6-chloro-3-{1-[4-((2S,4R)-2-hydroxymethyl-4-methoxy-pyrrolidine-1-carbonyl)-phenyl]-1H-[1,2,3]triazol-4-yl}-1H-quinolin-2-one] yielded a pIC50 (PDGFRalpha(V561D)) of 7.35 and a pIC50 (c-Kit(V654A)) of 7.46.
`O=C(c1ccc(-n2cc(-c3cc4cc(Cl)ccc4[nH]c3=O)nn2)cc1)N1CCC(N2CCC(O)CC2)C1` (stereo not shown) [A249, 6-chloro-3-(1-{4-[3-(4-hydroxy-piperidin-1-yl)-pyrrolidine-1-carbonyl]-phenyl}-1H-[1,2,3]triazol-4-yl)-1H-quinolin-2-one] was tested, and the pIC50 (PDGFRalpha(V561D)) was 6.59 and the pIC50 (c-Kit(V654A)) was 7.46.
For `O=C(c1ccc(-n2cc(-c3cc4cc(Cl)ccc4[nH]c3=O)nn2)cc1)N1CCN(C2COC2)CC1` [A250, 6-chloro-3-{1-[4-(4-oxetan-3-yl-piperazine-1-carbonyl)-phenyl]-1H-[1,2,3]triazol-4-yl}-1H-quinolin-2-one], the pIC50 (PDGFRalpha(V561D)) was 7.12 and the pIC50 (c-Kit(V654A)) was 7.40.
Molecule `COCCO[C@H]1CCN(C(=O)c2ccc(-n3cc(-c4cc5cc(F)ccc5[nH]c4=O)nn3)cc2)C1` [A251, 6-fluoro-3-(1-{4-[(S)-3-(2-methoxy-ethoxy)-pyrrolidine-1-carbonyl]-phenyl}-1H-[1,2,3]triazol-4-yl)-1H-quinolin-2-one] has a pIC50 (PDGFRalpha(V561D)) of 6.40 and a pIC50 (c-Kit(V654A)) of 6.80.
`COCCO[C@@H]1CCN(C(=O)c2ccc(-n3cc(-c4cc5cc(F)ccc5[nH]c4=O)nn3)cc2)C1` [A252, 6-fluoro-3-(1-{4-[(R)-3-(2-methoxy-ethoxy)-pyrrolidine-1-carbonyl]-phenyl}-1H-[1,2,3]triazol-4-yl)-1H-quinolin-2-one] gave a pIC50 (PDGFRalpha(V561D)) of 7.03 and a pIC50 (c-Kit(V654A)) of 7.01.
Molecule `COC[C@@H]1CCCN1C(=O)c1ccc(-n2cc(-c3cc4cc(Cl)ccc4[nH]c3=O)nn2)cc1` [A253, 6-chloro-3-{1-[4-((S)-2-methoxymethyl-pyrrolidine-1-carbonyl)-phenyl]-1H-[1,2,3]triazol-4-yl}-1H-quinolin-2-one] has a pIC50 (PDGFRalpha(V561D)) of 7.68 and a pIC50 (c-Kit(V654A)) of 7.36.
`CN(C)C1CCN(C(=O)c2ccc(-n3cc(-c4cc5cc(Cl)ccc5[nH]c4=O)nn3)cc2)C1` (stereo not shown) [A254, 6-chloro-3-{1-[4-(3-dimethylamino-pyrrolidine-1-carbonyl)-phenyl]-1H-[1,2,3]triazol-4-yl}-1H-quinolin-2-one] was tested, and the pIC50 (PDGFRalpha(V561D)) was 7.62 and the pIC50 (c-Kit(V654A)) was 7.24.
In the case of `O=C(c1ccc(-n2cc(-c3cc4cc(Cl)ccc4[nH]c3=O)nn2)cc1)N1CCCCC1CO` (stereo not shown) [A255, 6-chloro-3-{1-[4-(2-hydroxymethyl-piperidine-1-carbonyl)-phenyl]-1H-[1,2,3]triazol-4-yl}-1H-quinolin-2-one], the pIC50 (PDGFRalpha(V561D)) was 8.59 and the pIC50 (c-Kit(V654A)) was 7.66.
`O=C(c1ccc(-n2cc(-c3cc4cc(Cl)ccc4[nH]c3=O)nn2)cc1)N1CCC2(CC1)COC2` [A256, 6-chloro-3-{1-[4-(2-oxa-7-aza-spiro[3.5]nonane-7-carbonyl)-phenyl]-1H-[1,2,3]triazol-4-yl}-1H-quinolin-2-one] gave a pIC50 (PDGFRalpha(V561D)) of 8.37 and a pIC50 (c-Kit(V654A)) of 7.57.
`O=C(c1ccc(-n2cc(-c3cc4cc(Cl)ccc4[nH]c3=O)nn2)cc1)N1CCC2(COC2)C1` [A257, 6-chloro-3-{1-[4-(2-oxa-6-aza-spiro[3.4]octane-6-carbonyl)-phenyl]-1H-[1,2,3]triazol-4-yl}-1H-quinolin-2-one] was tested, and the pIC50 (PDGFRalpha(V561D)) was 8.43 and the pIC50 (c-Kit(V654A)) was 7.57.
`O=C(c1ccc(-n2cc(-c3cc4cc(Cl)ccc4[nH]c3=O)nn2)cc1)N1CC2(COC2)C1` [A258, 6-chloro-3-{1-[4-(2-oxa-6-aza-spiro[3.3]heptane-6-carbonyl)-phenyl]-1H-[1,2,3]triazol-4-yl}-1H-quinolin-2-one] showed a pIC50 (PDGFRalpha(V561D)) of 7.07 and a pIC50 (c-Kit(V654A)) of 7.33.
Molecule `COCCO[C@H]1CCN(C(=O)c2ccc(-n3cc(-c4cc5cc(Cl)ccc5[nH]c4=O)nn3)cc2)C1` [A259, 6-chloro-3-(1-{4-[(S)-3-(2-methoxy-ethoxy)-pyrrolidine-1-carbonyl]-phenyl}-1H-[1,2,3]triazol-4-yl)-1H-quinolin-2-one] has a pIC50 (PDGFRalpha(V561D)) of 8.08 and a pIC50 (c-Kit(V654A)) of 7.24.
For `COCCO[C@@H]1CCN(C(=O)c2ccc(-n3cc(-c4cc5cc(Cl)ccc5[nH]c4=O)nn3)cc2)C1` [A260, 6-chloro-3-(1-{4-[(R)-3-(2-methoxy-ethoxy)-pyrrolidine-1-carbonyl]-phenyl}-1H-[1,2,3]triazol-4-yl)-1H-quinolin-2-one], the pIC50 (PDGFRalpha(V561D)) was 7.00 and the pIC50 (c-Kit(V654A)) was 7.29.
For `COCCO[C@@H]1CCN(C(=O)c2ccc(-n3cc(-c4cc5cc(F)ccc5[nH]c4=O)cn3)cc2)C1` [A261, 6-fluoro-3-(1-{4-[(R)-3-(2-methoxy-ethoxy)-pyrrolidine-1-carbonyl]-phenyl}-1H-pyrazol-4-yl)-1H-quinolin-2-one], the pIC50 (PDGFRalpha(V561D)) was 7.43 and the pIC50 (c-Kit(V654A)) was 7.36.
Work on `NC(=O)[C@H]1CCCN1C(=O)c1ccc(-n2cc(-c3cc4cc(F)ccc4[nH]c3=O)nn2)cc1` [A262, (R)-1-{4-[4-(6-fluoro-2-oxo-1,2-dihydro-quinolin-3-yl)-[1,2,3]triazol-1-yl]-benzoyl}-pyrrolidine-2-carboxylic acid amide] yielded a pIC50 (PDGFRalpha(V561D)) of 6.96 and a pIC50 (c-Kit(V654A)) of 7.03.
`CO[C@@H]1CN(C(=O)c2ccc(-n3cc(-c4cc5cc(F)ccc5[nH]c4=O)nn3)cc2)C[C@H]1OC` [A263, 3-{1-[4-((3R,4R)-3,4-dimethoxy-pyrrolidine-1-carbonyl)-phenyl]-1H-[1,2,3]triazol-4-yl}-6-fluoro-1H-quinolin-2-one] was tested, and the pIC50 (PDGFRalpha(V561D)) was 9.04 and the pIC50 (c-Kit(V654A)) was 7.03.
`CO[C@H]1CN(C(=O)c2ccc(-n3cc(-c4cc5cc(F)ccc5[nH]c4=O)nn3)cc2)C[C@@H]1OC` [A264, 3-{1-[4-((3S,4S)-3,4-dimethoxy-pyrrolidine-1-carbonyl)-phenyl]-1H-[1,2,3]triazol-4-yl}-6-fluoro-1H-quinolin-2-one] was tested, and the pIC50 (PDGFRalpha(V561D)) was 8.92 and the pIC50 (c-Kit(V654A)) was 7.12.
`O=C(c1ccc(-n2cc(-c3cc4cc(F)ccc4[nH]c3=O)nn2)cc1)N1CC[C@H](F)C1` [A265, 6-fluoro-3-{1-[4-((S)-3-fluoro-pyrrolidine-1-carbonyl)-phenyl]-1H-[1,2,3]triazol-4-yl}-1H-quinolin-2-one] showed a pIC50 (PDGFRalpha(V561D)) of 8.80 and a pIC50 (c-Kit(V654A)) of 7.31.
With `O=C(c1ccc(-n2cc(-c3cc4cc(Cl)ccc4[nH]c3=O)nn2)cc1)N1CC[C@H](F)C1` [A266, 6-chloro-3-{1-[4-((S)-3-fluoro-pyrrolidine-1-carbonyl)-phenyl]-1H-[1,2,3]triazol-4-yl}-1H-quinolin-2-one] the pIC50 (PDGFRalpha(V561D)) was 8.96 and the pIC50 (c-Kit(V654A)) was 7.40.
`O=C(c1ccc(-n2cc(-c3cc4cc(F)ccc4[nH]c3=O)nn2)cc1)N1CCC(F)(F)C1` [A267, 3-{1-[4-(3,3-difluoro-pyrrolidine-1-carbonyl)-phenyl]-1H-[1,2,3]triazol-4-yl}-6-fluoro-1H-quinolin-2-one] was tested, and the pIC50 (PDGFRalpha(V561D)) was 8.85 and the pIC50 (c-Kit(V654A)) was 7.77.
For `O=C(c1ccc(-n2cc(-c3cc4cc(Cl)ccc4[nH]c3=O)nn2)cc1)N1CCC(F)(F)C1` [A268, 6-chloro-3-{1-[4-(3,3-difluoro-pyrrolidine-1-carbonyl)-phenyl]-1H-[1,2,3]triazol-4-yl}-1H-quinolin-2-one], the pIC50 (PDGFRalpha(V561D)) was 9.17 and the pIC50 (c-Kit(V654A)) was 7.80.
`O=C(c1ccc(-n2cc(-c3cc4cc(F)ccc4[nH]c3=O)nn2)cc1)N1CC[C@@H](F)C1` [A269, 6-fluoro-3-{1-[4-((R)-3-fluoro-pyrrolidine-1-carbonyl)-phenyl]-1H-[1,2,3]triazol-4-yl}-1H-quinolin-2-one] was tested, and the pIC50 (PDGFRalpha(V561D)) was 8.82 and the pIC50 (c-Kit(V654A)) was 7.51.
`O=C(c1ccc(-n2cc(-c3cc4cc(Cl)ccc4[nH]c3=O)nn2)cc1)N1CC[C@@H](F)C1` [A270, 6-chloro-3-{1-[4-((R)-3-fluoro-pyrrolidine-1-carbonyl)-phenyl]-1H-[1,2,3]triazol-4-yl}-1H-quinolin-2-one] gave a pIC50 (PDGFRalpha(V561D)) of 9.70 and a pIC50 (c-Kit(V654A)) of 7.59.
Work on `CO[C@@H]1CN(C(=O)c2ccc(-n3cc(-c4cc5cc(Cl)ccc5[nH]c4=O)nn3)cc2)C[C@H]1OC` [A271, 6-chloro-3-{1-[4-((3R,4R)-3,4-dimethoxy-pyrrolidine-1-carbonyl)-phenyl]-1H-[1,2,3]triazol-4-yl}-1H-quinolin-2-one] yielded a pIC50 (PDGFRalpha(V561D)) of 9.29 and a pIC50 (c-Kit(V654A)) of 7.30.
`CO[C@H]1CN(C(=O)c2ccc(-n3cc(-c4cc5cc(Cl)ccc5[nH]c4=O)nn3)cc2)C[C@@H]1OC` [A272, 6-chloro-3-{1-[4-((3S,4S)-3,4-dimethoxy-pyrrolidine-1-carbonyl)-phenyl]-1H-[1,2,3]triazol-4-yl}-1H-quinolin-2-one] showed a pIC50 (PDGFRalpha(V561D)) of 9.05 and a pIC50 (c-Kit(V654A)) of 7.32.
Molecule `O=C(c1ccc(-n2cc(-c3cc4cc(F)ccc4[nH]c3=O)nn2)cc1)N1CCCC1` [A273, 6-fluoro-3-{1-[4-(pyrrolidine-1-carbonyl)-phenyl]-1H-[1,2,3]triazol-4-yl}-1H-quinolin-2-one] has a pIC50 (PDGFRalpha(V561D)) of 8.39 and a pIC50 (c-Kit(V654A)) of 7.40.
